Assay results taken from US10011629B2, “Nucleoside analogs for treatment of the flaviviridae family of viruses and cancer” (Cocrystal Pharma, Inc., priority 2015, dated 2018).
Where two headings read alike, the source gives them in different places.

Tests used:
[1] = molecular target: HCV NS5B RNA polymerase GT 3a WT; test: NS5B enzyme assay, GT 3a WT; type: biochemical; conditions: NS5B enzyme GT 3a WT; average of two to three replicates ± SD
Method: The 21-amino-acid C-terminal truncated HCV NS5B RNA polymerase can be cloned from the HCV replicon cells, modified with a six-His-terminal tail, expressed in a prokaryotic expression vector (pQE60; Qiagen), and subsequently purified over a Talon cobalt affinity resin column (Clontech, Palo Alto, Calif.).^1 Purification can be monitored by SDS-PAGE and Western blotting. The resulting purified protein can be dialyzed overnight against 50 mM sodium phosphate (pH 8.0)-300 mM sodium chloride-0.5% Triton X-100-50% glycerol-2 mM dithiothreitol. The dialysate maintains consistent activity for more than 6 months when stored at −20° C. Protein can be quantified with the Coomassie Plus protein assay reagent (Pierce) by using a bovine serum albumin standard from the same supplier.
NS5B RNA polymerase reaction can be studied by monitoring the incorporation of ^32P-labeled UMP into the newly synthesized RNA strand by using minus IRES as the template. […] After the membrane is rinsed with water followed by rinsing with ethanol, the dots can be cut out and the radioactivity counted in a Packard liquid scintillation counter. The amount of product can be calculated on the basis of the total radioactivity in the reaction mixture. The rate of the reaction can be determined from the slope of the time course of product formation. […]

[2] = test system: nuclear DNA (ß-actin or rRNA gene) in HepG2 cells; test: Nuclear DNA level in HepG2 cells (real-time PCR); type: cell-based, human; conditions: Homo sapiens, 336 h, HepG2 cells, 14-day assay
Method: (§1) This assay was used in all studies described in this application that determine the effect of compounds on mitochondrial DNA content. In this assay, low-passage-number HepG2 cells were seeded at 5,000 cells/well in collagen-coated 96-well plates. Test compounds were added to the medium to obtain final concentrations of 0 μM, 0.1 μM, 10 μM and 100 μM. […] The mitochondrial cytochrome c oxidase subunit II (COXII) gene and the ß-actin or rRNA gene were amplified from 5 μl of the eluted nucleic acids using a multiplex Q-PCR protocol with suitable primers and probes for both target and reference amplifications. […] For exon 3 of the ß-actin gene (GenBank accession number E01094) the sense, probe, and antisense primers are 5′-[…]-3′ (SEQ ID NO. 4), 5′-6-[…]-3′ (SEQ ID NO. 5) and 5′-[…]-3′ (SEQ ID NO. 6), respectively. The primers and probes for the rRNA gene are commercially available from Applied Biosystems. […] The comparative CT method uses arithmetic formulas in which the amount of target (COXII gene) is normalized to the amount of an endogenous reference (the B-actin or rRNA gene) and is relative to a calibrator (a control with no drug at day 7). The arithmetic formula for this approach is given by 2-ΔΔCT, where ΔΔCT is (CT for average target test sample−CT for target control)−(CT for average reference test−CT for reference control) (see Johnson M R, K Wang, J B Smith, M J Heslin, R B Diasio. Quantitation of dihydropyrimidine dehydrogenase expression by real-time reverse transcription polymerase chain reaction. Anal. Biochem. 2000; 278:175-184). A decrease in mitochondrial DNA content in cells grown in the presence of drug indicated mitochondrial toxicity.

HepG2 cells = test: Lactic acid production in HepG2 cells; type: cell-based, human; conditions: 14-day assay
Method: To measure the effects of the compounds on lactic acid production, HepG2 cells from a stock culture were diluted and plated in 12-well culture plates at 2.5×10^4 cells per well. […] […] The culture medium was then filtered, and the lactic acid content in the medium was determined using a colorimetric lactic acid assay (Sigma-Aldrich). Since lactic acid product can be considered a marker for impaired mitochondrial function, elevated levels of lactic acid production detected in cells grown in the presence of test compounds would indicate a drug-induced cytotoxic effect.

[3] = Cytotoxicity in HCV replicon assay (ΔCt rRNA); type: cell-based; conditions: human
Method: (§2) Huh 7 Clone B cells containing HCV Replicon RNA were seeded in a 96-well plate at 5000 cells/well, and the compounds tested at 10 μM in triplicate immediately after seeding. Following five days incubation (37° C., 5% CO2), total cellular RNA was isolated by using versaGene RNA purification kit from Gentra. Replicon RNA and an internal control (TaqMan rRNA control reagents, Applied Biosystems) were amplified in a single step multiplex Real Time RT-PCR Assay. The antiviral effectiveness of the compounds was calculated by subtracting the threshold RT-PCR cycle of the test compound from the threshold RT-PCR cycle of the no-drug control (ΔCt HCV). A ΔCt of 3.3 equals a 1-log reduction (equal to 90% less starting material) in Replicon RNA levels. The cytotoxicity of the compounds was also calculated by using the ΔCt rRNA values. 2′-C-Me-C was used as the positive control. To determine EC90 and IC50 values^2, ΔCt: values were first converted into fraction of starting material^3 and then were used to calculate the % inhibition.

[4] = test system: HCV 1b (Huh 7 Clone B cells containing HCV Replicon RNA); test: HCV replicon assay; type: cell-based; conditions: Hepatitis C virus, Huh-7, read-out: EC90 (μM or letter value) or % inhib HCV
Method: as §2, with “inhibition. […]” for “inhibition.”

[5] = Assay for bone marrow cytotoxicity; type: cell-based, human; conditions: human, primary bone marrow mononuclear cells; organization LOBP; read-out: Bone marrow toxicity, CC50
Method: Primary human bone marrow mononuclear cells can be obtained commercially from Cambrex Bioscience (Walkersville, Md.). CFU-GM assays is carried out using a bilayer soft agar in the presence of 50 units/mL human recombinant granulocyte/macrophage colony-stimulating factor, while BFU-E assays used a […] matrix containing 1 unit/mL erythropoietin (see Sommadossi J P, Carlisle R. Toxicity of 3′-azido-3′-deoxythymidine and 9-(1,3-dihydroxy-2-propoxymethyl) guanine for normal human hepatopoietic progenitor cells in vitro. Antimicrob. Agents Chemother. 1987; 31: 452-454; Sommadossi, J P, Schinazi, R F, Chu, C K, and Xie, M Y. Comparison of cytotoxicity of the (−) and (+) enantiomer of 2′,3′-dideoxy-3′-thiacytidine in normal human bone marrow progenitor cells. Biochem. Pharmacol. 1992; 44:1921-1925). Each experiment can be performed in duplicate in cells from three different donors. AZT is used as a positive control. […] Statistical analysis can be performed with Student's t test for independent non-paired samples.

[6] = test system: mitochondrial DNA (COXII gene) in HepG2 cells; test: Mitochondrial DNA level in HepG2 cells (real-time PCR)
Method: as §1, with “The” for “The comparative CT method uses arithmetic formulas in which the amount of target (COXII gene) is normalized to the amount of an endogenous reference (the B-actin or rRNA gene) and is relative to a calibrator (a control with no drug at day 7). The”

Huh-7 cells = test: Cellular pharmacology in Huh7 cells (intracellular metabolites); conditions: Huh-7 cells, 50 μM, 4 hr
Method: Ice-cold 70% methanol was used as the extraction solvent. ddATP (10 nM) was used as the internal standard.

[7] = Homo sapiens, HepG2, read-out: % inhibition MitDNA

For `C[C@@]1(O)[C@H](O)[C@@H](COP(=O)(O)OP(=O)(O)OP(=O)(O)O)O[C@H]1n1ccc(=O)[nH]c1=O` [2′-Me-UTP], the EC50 [1] was 1.8 µM.

In the case of `O=c1ccn([C@@H]2O[C@H](CO)[C@@H](O)[C@@]2(F)Br)c(=O)[nH]1` [Compound 7, 2′-Deoxy-2′-Bromo-2′-Fluoro Uridine], the inhibition at 10 µM ([2]; 10 μM, read-out: % inhibition nDNA) is reported as 4.4%, the inhibition at 50 µM ([2]; 50 μM, read-out: % inhibition nDNA) is reported as less than 1% and the IC50 ([2]; read-out: IC50 nDNA) is reported as greater than 50 µM. For the same compound, the “Lactic acid Production (% of control)” value (HepG2 cells; 10 μM) was 85.0 ± 16.3 % of control, the “Lactic acid Production (% of control)” value (HepG2 cells; 50 μM) was 69.0 ± 13.5 % of control and the CC50 at 5 days [3] was greater than 10 µM. For the same compound, the EC90 [4] was greater than 10 µM, the CC50 [5] was greater than 100 µM and the “Summary (mitochondrial toxicity)” value [6] was “not toxic”. The inhibition at 10 µM [6, 7] was less than 1%, the inhibition at 50 µM [6, 7] was 13.5% and the IC50 ([6]; Homo sapiens, HepG2, read-out: IC50 MitDNA) was greater than 50 µM. The “Summary (mitochondrial toxicity)” value ([6]; human, 14 days) was “non-toxic up to 10 μM”, the “MitDNA Content (% of control)” value ([6]; human, 14 days, 10 μM) was 117 (98-138) % of control and the “MitDNA Content (% of control)” value ([6]; human, 14 days, 50 μM) was 72 (63-83) % of control. The “intracellular 7-DP” value (Huh-7 cells) was “BLOQ”, the “intracellular 7-MP” value (Huh-7 cells) was “BLOQ” and the “intracellular 7-TP” value (Huh-7 cells) was “BLOQ”. The “intracellular 9” value (Huh-7 cells) was “BLOQ”.
